# In patent publication US6197826A, “α-(2-hydroxyphenyl) nitrone compounds, pharmaceutical compositions containing the same and methods for treating inflammation” (Centaur Pharmaceuticals, Inc., priority 1999, dated 2001):
# Key:
# cyclooxygenase 1 (COX-1) = conditions: 300 μM; COX-1 from ram seminal vesicles
# Experimental: (§1) In this experiment, nitrones of formula I were tested to determine if they inhibit the enzymes cyclooxygenase 1 (COX-1) and cyclooxygenase 2 (COX-2). The inhibition of COX-1 was measured by incubating arachidonic acid with COX-1 dervied from ram seminal vesicles. The inhibition of COX-2 was measured by incubation of arachidonic acid with COX-2 derived from sheep placenta. These assays are further described in Evans et al., Biochem. Pharmacol., 36:2035, 1987. In each assay, the formation of prostaglandin E2 (PGE2) was measured by spectrophotometric quantitation of malondialdehyde. The compounds to be tested were added to incubation solutions at a concentration of 300 μM.
# cyclooxygenase 2 (COX-2) = conditions: 300 μM; COX-2 from sheep placenta
# Experimental: as §1
compound,measurement,setting,value
COc1ccc2c(c1)c(CC(=O)O)c(C)n2C(=O)c1ccc(Cl)cc1 [indomethacin],inhibition of COX-1,cyclooxygenase 1 (COX-1),completely inhibits
same,inhibition of COX-2,cyclooxygenase 2 (COX-2),completely inhibits
